# The supplement of paper PMC11451515
# Assays:
# Assay in all cases: AUC of viability dose-response curve (% viability x log10 dose units); higher = less sensitive
# Details in all cases: 48 h
# P12-Ichikawa = tested on: P12-Ichikawa
# In short: (§1)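 Leukemia cells adapted to each medium were seeded at 500 or 1000 cells/well in 1536-well plates and dosed with library compounds in DMSO at 11 threefold doses from 47 μM to 0.79 nM for 48 h at 37°C. CellTiter-Glo One luminescence was normalised per plate to DMSO and cell-free wells, then fitted with a four-parameter log-logistic model over log10 doses. Area under the curve was taken from this fit by the trapezoidal rule, with curves above full viability scaled and curves failing quality control removed.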
# SEM cells = tested on: SEM cells
# In short: as §1
# NOMO1 = tested on: NOMO1
# In short: as §1
# [1] = RPMI 5 mM glucose + 10% dialyzed FBS
Structure (SMILES),AUC of viability dose-response curve (P12-Ichikawa; HPLM + 10% dialyzed FBS),AUC of viability dose-response curve (P12-Ichikawa; RPMI 5 mM glucose + 10% FBS),AUC of viability dose-response curve (P12-Ichikawa; [1]),AUC of viability dose-response curve (SEM cells; HPLM + 10% dialyzed FBS),AUC of viability dose-response curve (SEM cells; RPMI 5 mM glucose + 10% FBS),AUC of viability dose-response curve (SEM cells; [1]),AUC of viability dose-response curve (NOMO1; HPLM + 10% dialyzed FBS),AUC of viability dose-response curve (NOMO1; RPMI 5 mM glucose + 10% FBS),AUC of viability dose-response curve (NOMO1; [1])
O=C(Nc1ccccc1)Nc1ccc(-c2ccc(C(=O)[C@@H]3CCC[C@H]3C(=O)O)cc2)cc1,444,444,443,476,467,468,406,441,409
C[S+](=O)([O-])N1CCN(Cc2cc3nc(-c4cccc5[nH]ncc45)nc(N4CCOCC4)c3s2)CC1,428,420,414,356,348,348,381,421,384
CN(CC(=O)N(Cc1ccc(C2CCCCC2)cc1)c1ccc(C(=O)O)c(O)c1)[S+](=O)([O-])c1c(F)c(F)c(F)c(F)c1F,440,462,421,432,404,405,447,408,440
O=C(NOCC1CC1)c1ccc(F)c(F)c1Nc1ccc(I)cc1Cl,447,429,450,455,440,434,362,389,382
O=c1oc2cc(O)ccc2s1,466,446,454,462,447,453,439,448,467
Clc1ccc(C(c2ccc(Cl)cc2)[n+]2ccn(CC(OCc3ccc(Cl)cc3Cl)c3ccc(Cl)cc3Cl)c2)cc1 (configuration not stated),438,432,444,432,415,440,441,441,440
Nc1nccc(-c2ccc3noc(-c4ccc(Cl)cc4)c3c2)n1,468,466,470,425,457,462,449,464,469
Cn1cnc(N)c2ncnc1-2,396,395,399,367,326,362,375,406,398
